According to ChEMBL document CHEMBL4130502, “Discovery of thienopyrrolotriazine derivatives to protect mitochondrial function against Aβ-induced neurotoxicity” (Eur J Med Chem, 2017):

How the values were obtained:
[1] = Stability in rat plasma assessed as parent compound remaining at 10 uM after 120 mins by LC-MS/MS analysis; format: ADME, cell-free; details: read-out: Stability
[2] = target: CYP3A4 (Homo sapiens, UniProt P08684); assay: Inhibition of human CYP3A4 assessed as remaining enzyme activity at 10 uM preincubated for 5 mins followed by Vivid CYP substrate addition measured after 20 mins by fluorescence assay relative to control; format: ADME; details: probe Vivid CYP substrate, read-out: Activity
Sequence of CYP3A4 (P08684 whole entry): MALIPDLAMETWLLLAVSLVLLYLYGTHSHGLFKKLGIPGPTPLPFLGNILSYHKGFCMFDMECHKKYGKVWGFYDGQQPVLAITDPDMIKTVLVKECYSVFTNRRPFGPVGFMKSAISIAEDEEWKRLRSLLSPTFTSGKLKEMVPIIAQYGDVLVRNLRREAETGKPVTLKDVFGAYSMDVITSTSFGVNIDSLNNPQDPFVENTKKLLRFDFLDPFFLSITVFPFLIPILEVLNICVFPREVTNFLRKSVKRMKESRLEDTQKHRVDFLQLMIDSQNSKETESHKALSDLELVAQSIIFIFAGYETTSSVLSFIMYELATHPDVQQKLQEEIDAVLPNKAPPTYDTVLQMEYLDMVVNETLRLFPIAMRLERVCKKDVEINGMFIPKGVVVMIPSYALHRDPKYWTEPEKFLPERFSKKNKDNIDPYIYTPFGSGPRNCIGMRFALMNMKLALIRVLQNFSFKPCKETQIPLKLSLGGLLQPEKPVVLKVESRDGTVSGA

[3] = Stability in mouse liver microsomes assessed as parent compound remaining at 1 uM preincubated for 5 mins followed by NADPH addition measured after 30 mins by LC-MS/MS analysis; format: ADME, microsome; details: read-out: Stability
[4] = Cytotoxicity against mouse HT22 cells as cell viability at 5 uM after 24 hrs by MTT assay relative to control; format: cell-based, HT-22; details: read-out: Activity
[5] = Stability in dog liver microsomes assessed as parent compound remaining at 1 uM preincubated for 5 mins followed by NADPH addition measured after 30 mins by LC-MS/MS analysis; format: ADME, Canis lupus familiaris, microsome; details: read-out: Stability
[6] = target: Translocator protein (Rattus norvegicus, UniProt P16257); assay: Displacement of [3H]PK11195 from TSPO in Sprague-Dawley rat cerebral cortex membranes after 60 mins by liquid scintillation counting analysis; set-up: species or system Membrane
Sequence of Translocator protein (Rattus norvegicus, UniProt P16257) (P16257 whole entry, looked up): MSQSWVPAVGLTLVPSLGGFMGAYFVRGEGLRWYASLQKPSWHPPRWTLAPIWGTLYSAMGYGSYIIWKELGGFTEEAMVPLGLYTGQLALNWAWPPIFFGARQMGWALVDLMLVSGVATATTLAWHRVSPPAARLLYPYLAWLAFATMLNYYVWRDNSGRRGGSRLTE

[7] = target: Translocator protein (Mus musculus) (UniProt P50637); assay: Inhibition of TSPO in mouse HT22 cells assessed as recovery of ATP production at 5 uM preincubated for 10 mins followed by amyloid beta (1 to 42) stimulation and measured after 7 hrs by luciferase based assay relative to control; format: cell-based; set-up: scale not given: the % may be the effect or the level left
Sequence of Translocator protein (Mus musculus) (P50637 whole entry, looked up): as the sequence (P16257 whole entry, looked up) above, with S2P, Q3E, I67V, E77D, V110A, M113L, M149V, T168P counted along it

[8] = target: CYP2C19 (Homo sapiens, UniProt P33261); assay: Inhibition of human CYP2C19 assessed as remaining enzyme activity at 10 uM preincubated for 5 mins followed by Vivid CYP substrate addition measured after 20 mins by fluorescence assay relative to control; format: ADME; details: probe Vivid CYP substrate, read-out: Activity
Sequence of CYP2C19 (P33261 whole entry): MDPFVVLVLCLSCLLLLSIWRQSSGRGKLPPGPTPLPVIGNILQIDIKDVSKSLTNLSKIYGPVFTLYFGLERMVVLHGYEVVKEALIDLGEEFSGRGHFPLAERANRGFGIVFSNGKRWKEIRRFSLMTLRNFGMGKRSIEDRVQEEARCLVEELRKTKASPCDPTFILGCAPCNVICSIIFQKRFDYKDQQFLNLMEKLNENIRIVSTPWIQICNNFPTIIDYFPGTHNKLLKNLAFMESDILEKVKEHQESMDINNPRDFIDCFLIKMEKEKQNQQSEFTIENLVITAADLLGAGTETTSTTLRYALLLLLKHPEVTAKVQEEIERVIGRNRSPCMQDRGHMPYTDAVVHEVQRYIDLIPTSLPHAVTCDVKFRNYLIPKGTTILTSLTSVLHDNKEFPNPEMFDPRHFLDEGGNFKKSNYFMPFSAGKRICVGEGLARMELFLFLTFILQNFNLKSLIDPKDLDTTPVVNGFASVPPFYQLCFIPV

[9] = target: CYP2D6 (Homo sapiens, UniProt P10635); assay: Inhibition of human CYP2D6 assessed as remaining enzyme activity at 10 uM preincubated for 5 mins followed by Vivid CYP substrate addition measured after 20 mins by fluorescence assay relative to control; format: ADME; details: probe Vivid CYP substrate, read-out: Activity
Sequence of CYP2D6 (P10635 whole entry): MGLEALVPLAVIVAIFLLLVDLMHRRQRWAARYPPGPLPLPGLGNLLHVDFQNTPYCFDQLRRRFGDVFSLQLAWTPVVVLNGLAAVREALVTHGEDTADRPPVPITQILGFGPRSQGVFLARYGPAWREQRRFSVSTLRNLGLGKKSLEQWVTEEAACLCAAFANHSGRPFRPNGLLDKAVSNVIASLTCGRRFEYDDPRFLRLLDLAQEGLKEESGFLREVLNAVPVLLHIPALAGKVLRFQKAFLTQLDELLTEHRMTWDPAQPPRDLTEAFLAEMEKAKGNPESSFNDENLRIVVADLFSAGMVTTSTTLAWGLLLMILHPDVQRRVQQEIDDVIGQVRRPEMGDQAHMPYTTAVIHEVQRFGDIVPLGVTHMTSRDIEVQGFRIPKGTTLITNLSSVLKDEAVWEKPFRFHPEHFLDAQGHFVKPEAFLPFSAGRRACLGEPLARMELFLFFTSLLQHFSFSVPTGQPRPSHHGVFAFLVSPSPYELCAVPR

[10] = Stability in rat plasma assessed as parent compound remaining at 10 uM after 30 mins by LC-MS/MS analysis; format: ADME, cell-free; details: read-out: Stability
[11] = target: Translocator protein (Homo sapiens, UniProt P30536); assay: Binding affinity to C-terminal DDK-tagged human recombinant full-length TSPO expressed in HEK293 cells by SPR assay
Sequence of Translocator protein (Homo sapiens, UniProt P30536) (P30536 whole entry): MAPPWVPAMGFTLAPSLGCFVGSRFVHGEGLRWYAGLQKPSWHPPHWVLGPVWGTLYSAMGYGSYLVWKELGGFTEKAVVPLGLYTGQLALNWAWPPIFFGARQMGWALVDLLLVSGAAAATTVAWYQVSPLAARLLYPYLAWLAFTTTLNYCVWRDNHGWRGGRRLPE

[12] = Stability in rat liver microsomes assessed as parent compound remaining at 1 uM preincubated for 5 mins followed by NADPH addition measured after 30 mins by LC-MS/MS analysis; format: ADME, microsome; details: read-out: Stability
[13] = Stability in human liver microsomes assessed as parent compound remaining at 1 uM preincubated for 5 mins followed by NADPH addition measured after 30 mins by LC-MS/MS analysis; format: ADME, microsome; details: read-out: Stability
[14] = target: T1, CYP1A2 (Homo sapiens, UniProt P05177); assay: Inhibition of human CYP1A2 assessed as remaining enzyme activity at 10 uM preincubated for 5 mins followed by Vivid CYP substrate addition measured after 20 mins by fluorescence assay relative to control; format: ADME; details: probe Vivid CYP substrate, read-out: Activity
T1 sequence (P05177 whole entry): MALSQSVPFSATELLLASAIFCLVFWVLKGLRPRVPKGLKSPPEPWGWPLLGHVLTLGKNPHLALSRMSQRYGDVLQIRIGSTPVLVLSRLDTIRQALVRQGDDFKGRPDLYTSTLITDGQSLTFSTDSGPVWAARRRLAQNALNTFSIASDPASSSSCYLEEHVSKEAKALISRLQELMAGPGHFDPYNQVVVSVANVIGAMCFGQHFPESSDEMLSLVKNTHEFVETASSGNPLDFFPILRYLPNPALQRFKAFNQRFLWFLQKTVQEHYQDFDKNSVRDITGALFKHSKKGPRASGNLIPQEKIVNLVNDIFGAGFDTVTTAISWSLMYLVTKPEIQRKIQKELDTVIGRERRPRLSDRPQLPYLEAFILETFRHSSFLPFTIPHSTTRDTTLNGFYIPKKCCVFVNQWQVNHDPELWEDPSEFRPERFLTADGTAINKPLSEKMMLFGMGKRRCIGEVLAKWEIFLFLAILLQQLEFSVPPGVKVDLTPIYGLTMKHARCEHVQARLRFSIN

[15] = Stability in human plasma assessed as parent compound remaining at 10 uM after 120 mins by LC-MS/MS analysis; format: ADME, cell-free; details: read-out: Stability
[16] = target: Translocator protein (Mus musculus) (UniProt P50637); assay: Inhibition of TSPO in mouse HT22 cells assessed as reduction in amyloid beta (1 to 42) (unknown origin) induced mitochondrial permeability transition pore formation by measuring increase in green to red fluorescence ratio at 5 uM pretreated for 10 mins followed by amyloid beta (1 to 42) stimulation and measured at 1 hr interval for 3 hrs by JC-1 dye based fluorescence assay relative to control; format: cell-based; set-up: scale not given: the % may be the effect or the level left
[17] = Stability in human plasma assessed as parent compound remaining at 10 uM after 30 mins by LC-MS/MS analysis; format: ADME, cell-free; details: read-out: Stability
[18] = target: CYP2C9 (Homo sapiens, UniProt P11712); assay: Inhibition of human CYP2C9 assessed as remaining enzyme activity at 10 uM preincubated for 5 mins followed by Vivid CYP substrate addition measured after 20 mins by fluorescence assay relative to control; format: ADME; details: probe Vivid CYP substrate, read-out: Activity
Sequence of CYP2C9 (P11712 whole entry): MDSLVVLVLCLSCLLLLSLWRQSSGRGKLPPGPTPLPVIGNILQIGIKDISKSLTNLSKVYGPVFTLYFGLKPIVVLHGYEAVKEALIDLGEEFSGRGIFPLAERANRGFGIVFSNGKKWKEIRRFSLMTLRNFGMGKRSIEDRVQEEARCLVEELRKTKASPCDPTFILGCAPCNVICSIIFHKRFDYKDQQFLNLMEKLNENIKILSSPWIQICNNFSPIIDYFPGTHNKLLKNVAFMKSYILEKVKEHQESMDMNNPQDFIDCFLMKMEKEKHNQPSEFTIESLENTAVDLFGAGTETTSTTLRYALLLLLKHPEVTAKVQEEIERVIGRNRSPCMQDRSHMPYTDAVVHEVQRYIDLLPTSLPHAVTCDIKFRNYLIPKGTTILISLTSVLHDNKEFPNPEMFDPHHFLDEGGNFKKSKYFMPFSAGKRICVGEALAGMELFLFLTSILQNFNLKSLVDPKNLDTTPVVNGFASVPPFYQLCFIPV

SMILES	remaining at 2 h, 10 µM [1]	activity at 20 min, 10 µM [2]	remaining at 0.5 h, 1 µM [3]	viability at 24 h, 5 µM [4]	remaining at 0.5 h, 1 µM [5]	IC50 [6]	Activity [7]	activity at 20 min, 10 µM [8]	activity at 20 min, 10 µM [9]	remaining at 0.5 h, 10 µM [10]	Kd [11]	remaining at 0.5 h, 1 µM [12]	remaining at 0.5 h, 1 µM [13]	activity at 20 min, 10 µM [14]	remaining at 2 h, 10 µM [15]	Activity [16]	remaining at 0.5 h, 10 µM [17]	activity at 20 min, 10 µM [18]
CCc1nnc(SCC(=O)N(C)c2ccccc2)c2cc3sccc3n12	72.4%	32.2%	8.2%	97%	5.1%	24.8 nM	8%	16.8%	49.5%	94%	39.6 nM	6.4%	5%	33.7%	96.8%	46%	> 100%	70.5%
CCc1nnc(SCC(=O)N(C)c2ccccc2)c2cc3sc(C)cc3n12	80.6%	64.1%	12.8%	91%	9.8%	39.9 nM	44%	52.2%	60.4%	96.6%	61.2 nM	9%	8.8%	50.7%	93.6%	61%	99.3%	64.8%
CCN(Cc1ccccc1)C(=O)CSc1nnc(C)n2c1cc1sc(C)cc12	–	51.4%	–	97%	–	123 nM	26%	10.2%	38.4%	–	–	–	–	70.9%	–	66%	–	21.1%
CCc1nnc(SCC(=O)Nc2ccccc2)c2cc3sc(C)cc3n12	–	34.1%	–	92%	–	1670 nM	22%	44.1%	17%	–	–	–	–	49.2%	–	61%	–	95.9%
